The values that follow come from US7449465B2, “Triazolopyrimidine derivatives as glycogen synthase kinase 3 inhibitors” (Janssen Pharmaceutica, N.V., priority 2003, dated 2008).

Sequence of GSK3alpha (P49840 whole entry, species assumed): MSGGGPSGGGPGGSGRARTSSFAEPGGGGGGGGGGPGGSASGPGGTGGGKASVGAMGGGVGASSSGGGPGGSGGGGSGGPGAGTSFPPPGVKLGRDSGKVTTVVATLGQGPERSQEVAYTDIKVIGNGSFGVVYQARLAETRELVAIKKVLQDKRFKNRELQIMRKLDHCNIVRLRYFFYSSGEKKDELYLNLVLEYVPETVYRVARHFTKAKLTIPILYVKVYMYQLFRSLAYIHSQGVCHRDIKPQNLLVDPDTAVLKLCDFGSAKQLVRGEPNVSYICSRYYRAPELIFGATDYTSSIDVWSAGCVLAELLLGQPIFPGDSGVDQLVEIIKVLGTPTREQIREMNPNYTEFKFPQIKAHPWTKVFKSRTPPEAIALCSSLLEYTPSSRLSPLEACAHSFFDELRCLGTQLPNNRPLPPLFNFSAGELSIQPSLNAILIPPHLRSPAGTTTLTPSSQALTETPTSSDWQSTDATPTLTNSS

In the first assay the target is GSK3β (Homo sapiens, UniProt P49841). The assay is described as follows: GSK3beta assay (SPA, biotinylated phosphorylated CREB peptide, ATP-P33). It counts as biochemical. Conditions: ranges of pIC50 (−log IC50 (M)); 1 μM ATP, room temperature, one hour; read-out: GSK3b pIC50 (converted). The method, then: (§1) GSK3beta assays were performed at room temperature in a 100 μl reaction volume of 25 mM Tris (pH 7.4) containing 10 mM MgCl2.6H2O, 1 mM DTI, 0.1 mgiml BSA, 5% glycerol and containing 5.7 ng/μl GSK3β, 5 μM biotinylated phosphorylated CREB peptide, 1 μM ATP, 0.85 μCi/ml ATP-P^33 and a suitable amount of a test compound of formula (I). After one hour, the reaction was terminated by adding 70 μl of Stop mix (0.1 mM ATP, 5 mg/ml streptavidin coated PVT SPA bead pH 11.0). The beads to which the phosphorylated CREB peptide is attached were allowed to settle overnight and the radioactivity of the beads was counted in a microtiterplate scintillation counter and compared with the results obtained in a control experiment (without the presence of a test compound) in order to determine the percentage of GSK3β inhibition. The IC50 value, i.e. the concentration (M) of the test compound at which 50% of GSK3β is inhibited, was calculated from the dose response curve obtained by performing the above-described GSK3β assay in the presence of different amounts of the test compound.
Sequence of GSK3β (P49841 whole entry, species assumed): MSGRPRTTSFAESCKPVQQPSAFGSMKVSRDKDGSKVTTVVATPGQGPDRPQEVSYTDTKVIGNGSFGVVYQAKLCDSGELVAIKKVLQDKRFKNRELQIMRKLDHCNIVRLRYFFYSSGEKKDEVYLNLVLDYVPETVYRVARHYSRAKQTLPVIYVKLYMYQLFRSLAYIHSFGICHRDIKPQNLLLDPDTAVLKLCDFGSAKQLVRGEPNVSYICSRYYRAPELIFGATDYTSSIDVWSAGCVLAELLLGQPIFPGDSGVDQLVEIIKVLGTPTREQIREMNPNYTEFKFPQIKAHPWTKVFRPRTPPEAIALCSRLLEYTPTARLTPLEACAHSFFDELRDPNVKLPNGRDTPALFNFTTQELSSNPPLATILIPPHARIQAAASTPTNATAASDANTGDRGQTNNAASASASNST
As to `N#CCc1cccc(-n2nnc3cnc(Nc4ccc(CN5CCC(O)CC5)cc4)nc32)c1` [Compound 90], the IC50 is less than 1e-08 M.

On to `Cn1nnc(-c2ccc(Nc3ncc4nnn(-c5cccc(F)c5)c4n3)cc2)n1` [Compound 42], for which the IC50 is less than 1e-08 M.

Regarding `CCC(C)n1ncn(-c2ccc(Nc3ncc4nnn(-c5cccc(F)c5)c4n3)cc2)c1=O` (stereo not shown) [Compound 41], the IC50 was 1e-08 to 1e-07 M.

In the case of `CN1CCN(C(=O)c2ccc(Nc3ncc4nnn(-c5cccc(CC#N)c5)c4n3)cc2)CC1` [Compound 91], the IC50 was less than 1e-08 M.

`Cn1ccnc1-c1cccc(Nc2ncc3nnn(-c4cccc(F)c4)c3n2)c1` [Compound 24]: the IC50 was less than 1e-08 M.

`Cn1nnc(-c2cccc(Nc3ncc4nnn(-c5cccc(F)c5)c4n3)c2)n1` [Compound 29]: the IC50 was less than 1e-08 M.

Regarding `N#CNc1nccc(-c2cccc(Nc3ncc4nnn(-c5cccc(F)c5)c4n3)c2)n1` [Compound 35], the IC50 is less than 1e-08 M.

As to `Nc1nccc(-c2cccc(Nc3ncc4nnn(-c5cccc(S(N)(=O)=O)c5)c4n3)c2)n1` [Compound 147], the IC50 is less than 1e-08 M.

In the case of `Brc1cccc(-n2nnc3cnc(Nc4cccc(-c5ccn[nH]5)c4)nc32)c1` [Compound 44], the IC50 was 1e-08 to 1e-07 M.

With `Brc1cccc(-n2nnc3cnc(Nc4ccc(Nc5ncccn5)cc4)nc32)c1` [Compound 54], the IC50 was 1e-08 to 1e-07 M.

On to `CN1CCN(CCCOc2ccc(Nc3ncc4nnn(-c5cccc(CC#N)c5)c4n3)cc2)CC1` [Compound 94], for which the IC50 is less than 1e-08 M.

Consider `Nc1nccc(-c2cccc(Nc3ncc4nnn(-c5cccc(CO)c5)c4n3)c2)n1` [Compound 97], for which the IC50 was less than 1e-08 M.

With `OCCc1cccc(-n2nnc3cnc(Nc4ccc(Nc5ncccn5)cc4)nc32)c1` [Compound 84], the IC50 is less than 1e-08 M.

As to `Fc1cccc(-n2nnc3cnc(Nc4ccc(-n5cncn5)cc4)nc32)c1` [Compound 40], the IC50 is less than 1e-08 M.

On to `COCC(=O)NCc1cccc(-n2nnc3cnc(Nc4ccc(-c5cnco5)cc4)nc32)c1` [Compound 123], for which the IC50 is less than 1e-08 M.

As to `NCc1cccc(-n2nnc3cnc(Nc4cccc(-c5cnco5)c4)nc32)c1` [Compound 114], the IC50 is less than 1e-08 M.

`CN1CCN(CCOc2ccc(Nc3ncc4nnn(-c5cccc(F)c5)c4n3)cc2)CC1` [Compound 140]: the IC50 is 1e-08 to 1e-07 M.

As for `COCc1cccc(-n2nnc3cnc(Nc4ccc(CN5CCN(C)CC5)cc4)nc32)c1` [Compound 101], the IC50 was 1e-08 to 1e-07 M.

As to `Cn1cc(Br)c(-c2cccc(Nc3ncc4nnn(-c5cccc(F)c5)c4n3)c2)n1` [Compound 25], the IC50 was 1e-08 to 1e-07 M.

For the compound `Cn1nccc1-c1cccc(Nc2ncc3nnn(-c4cccc(F)c4)c3n2)c1` [Compound 23], the IC50 is less than 1e-08 M.

Turning to `CC(=O)NCc1cccc(-n2nnc3cnc(Nc4cccc(-c5ccnc(N)n5)c4)nc32)c1` [Compound 117], the IC50 is greater than 1e-09 M.

For `N#CCc1cccc(-n2nnc3cnc(Nc4cccc(-c5cnco5)c4)nc32)c1` [Compound 86], the IC50 was less than 1e-08 M.

For `Cn1nnnc1-c1cccc(Nc2ncc3nnn(-c4ccccc4)c3n2)c1` [Compound 74], the IC50 is less than 1e-08 M.

As for `COCc1cccc(-n2nnc3cnc(Nc4cccc(-c5nnnn5C)c4)nc32)c1` [Compound 99], the IC50 was less than 1e-08 M.

For the compound `Fc1cccc(-n2nnc3cnc(Nc4ccc(-n5cccn5)cc4)nc32)c1` [Compound 39], the IC50 is 1e-08 to 1e-07 M.

For `COCCOc1cccc(-n2nnc3cnc(Nc4ccc(C(=O)NCCN5CCOCC5)cc4)nc32)c1` [Compound 134], the IC50 was 1e-08 to 1e-07 M.

Another assay has as its target GSK3alpha (Homo sapiens, UniProt P49840). The assay is described as follows: GSK3alpha assay (same as the GSK3beta assay, 0.25 ng/μl GSK3alpha). It counts as biochemical. Conditions: ranges of pIC50 (−log IC50 (M)), 1 μM ATP, read-out: GSK3a pIC50 (converted). The protocol: as §1
The GSK3alpha assay was performed in the same way as described above for the GSK3beta assay except for the concentration of GSK3alpha which is 0.25 ng/μl.
With `N#CCc1cccc(-n2nnc3cnc(Nc4ccc(CN5CCC(O)CC5)cc4)nc32)c1` [Compound 90], the IC50 is less than 1e-08 M.

In the case of `Cn1nnc(-c2ccc(Nc3ncc4nnn(-c5cccc(F)c5)c4n3)cc2)n1` [Compound 42], the IC50 is 1e-08 to 1e-07 M.

Take `CCC(C)n1ncn(-c2ccc(Nc3ncc4nnn(-c5cccc(F)c5)c4n3)cc2)c1=O` (stereo not shown) [Compound 41]: the IC50 was 1e-08 to 1e-07 M.

With `CN1CCN(C(=O)c2ccc(Nc3ncc4nnn(-c5cccc(CC#N)c5)c4n3)cc2)CC1` [Compound 91], the IC50 is less than 1e-08 M.

Turning to `Cn1ccnc1-c1cccc(Nc2ncc3nnn(-c4cccc(F)c4)c3n2)c1` [Compound 24], the IC50 was less than 1e-08 M.

Take `Cn1nnc(-c2cccc(Nc3ncc4nnn(-c5cccc(F)c5)c4n3)c2)n1` [Compound 29]: the IC50 is less than 1e-08 M.

Consider `N#CNc1nccc(-c2cccc(Nc3ncc4nnn(-c5cccc(F)c5)c4n3)c2)n1` [Compound 35], for which the IC50 was less than 1e-08 M.

As for `Nc1nccc(-c2cccc(Nc3ncc4nnn(-c5cccc(S(N)(=O)=O)c5)c4n3)c2)n1` [Compound 147], the IC50 is less than 1e-08 M.

`Brc1cccc(-n2nnc3cnc(Nc4cccc(-c5ccn[nH]5)c4)nc32)c1` [Compound 44]: the IC50 was less than 1e-08 M.

For the compound `Brc1cccc(-n2nnc3cnc(Nc4ccc(Nc5ncccn5)cc4)nc32)c1` [Compound 54], the IC50 was less than 1e-08 M.

With `CN1CCN(CCCOc2ccc(Nc3ncc4nnn(-c5cccc(CC#N)c5)c4n3)cc2)CC1` [Compound 94], the IC50 is less than 1e-08 M.

As to `Nc1nccc(-c2cccc(Nc3ncc4nnn(-c5cccc(CO)c5)c4n3)c2)n1` [Compound 97], the IC50 is less than 1e-08 M.

For the compound `OCCc1cccc(-n2nnc3cnc(Nc4ccc(Nc5ncccn5)cc4)nc32)c1` [Compound 84], the IC50 is less than 1e-08 M.

For `Fc1cccc(-n2nnc3cnc(Nc4ccc(-n5cncn5)cc4)nc32)c1` [Compound 40], the IC50 was less than 1e-08 M.

Take `COCC(=O)NCc1cccc(-n2nnc3cnc(Nc4ccc(-c5cnco5)cc4)nc32)c1` [Compound 123]: the IC50 was less than 1e-08 M.

As to `NCc1cccc(-n2nnc3cnc(Nc4cccc(-c5cnco5)c4)nc32)c1` [Compound 114], the IC50 was less than 1e-08 M.

`CN1CCN(CCOc2ccc(Nc3ncc4nnn(-c5cccc(F)c5)c4n3)cc2)CC1` [Compound 140]: the IC50 is less than 1e-08 M.

For the compound `COCc1cccc(-n2nnc3cnc(Nc4ccc(CN5CCN(C)CC5)cc4)nc32)c1` [Compound 101], the IC50 is less than 1e-08 M.

As for `Cn1cc(Br)c(-c2cccc(Nc3ncc4nnn(-c5cccc(F)c5)c4n3)c2)n1` [Compound 25], the IC50 was 1e-08 to 1e-07 M.

Regarding `Cn1nccc1-c1cccc(Nc2ncc3nnn(-c4cccc(F)c4)c3n2)c1` [Compound 23], the IC50 was less than 1e-08 M.

With `CC(=O)NCc1cccc(-n2nnc3cnc(Nc4cccc(-c5ccnc(N)n5)c4)nc32)c1` [Compound 117], the IC50 was less than 1e-08 M.

For the compound `N#CCc1cccc(-n2nnc3cnc(Nc4cccc(-c5cnco5)c4)nc32)c1` [Compound 86], the IC50 was less than 1e-08 M.

In the case of `Cn1nnnc1-c1cccc(Nc2ncc3nnn(-c4ccccc4)c3n2)c1` [Compound 74], the IC50 is less than 1e-08 M.

On to `COCc1cccc(-n2nnc3cnc(Nc4cccc(-c5nnnn5C)c4)nc32)c1` [Compound 99], for which the IC50 was less than 1e-08 M.

Turning to `Fc1cccc(-n2nnc3cnc(Nc4ccc(-n5cccn5)cc4)nc32)c1` [Compound 39], the IC50 was greater than 1e-07 M.

As for `COCCOc1cccc(-n2nnc3cnc(Nc4ccc(C(=O)NCCN5CCOCC5)cc4)nc32)c1` [Compound 134], the IC50 was less than 1e-08 M.
